Data as given in US11530186B2, “Inhibitors for the β-catenin / T-cell factor protein-protein interaction” (H. LEE MOFFITT CANCER CENTER AND RESEARCH INSTITUTE, INC., priority 2018, dated 2022).

Biological target: T1, β-catenin/E-cadherin (Homo sapiens, UniProt P35222)
T1 construct: 150 nM human β-catenin (residues 138-781); 6×histidine (C); made in house; host or cells: E. coli BL21 DE3
T1 sequence (P35222 138-781): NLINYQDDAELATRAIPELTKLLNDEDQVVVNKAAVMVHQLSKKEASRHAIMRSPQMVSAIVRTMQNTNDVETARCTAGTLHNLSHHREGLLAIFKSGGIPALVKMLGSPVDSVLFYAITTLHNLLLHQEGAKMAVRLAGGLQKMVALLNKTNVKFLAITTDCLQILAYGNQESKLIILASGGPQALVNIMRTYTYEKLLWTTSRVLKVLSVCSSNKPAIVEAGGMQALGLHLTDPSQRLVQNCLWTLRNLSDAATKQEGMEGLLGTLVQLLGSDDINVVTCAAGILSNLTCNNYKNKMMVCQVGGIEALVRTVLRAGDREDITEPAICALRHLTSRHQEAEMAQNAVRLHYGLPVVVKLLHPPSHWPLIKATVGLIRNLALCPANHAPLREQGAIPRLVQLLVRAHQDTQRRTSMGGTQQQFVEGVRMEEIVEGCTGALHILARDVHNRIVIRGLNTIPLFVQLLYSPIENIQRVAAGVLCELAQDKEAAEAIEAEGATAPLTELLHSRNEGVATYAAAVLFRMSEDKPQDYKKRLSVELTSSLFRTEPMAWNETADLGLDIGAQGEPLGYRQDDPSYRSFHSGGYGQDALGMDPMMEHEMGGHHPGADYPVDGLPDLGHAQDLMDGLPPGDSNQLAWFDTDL
Assay: FP selectivity assay, β-catenin/cadherin assay
Format: binding
Experimental: FP Selectivity Assays. Experiments were performed in 96-well Microfluor 2 black plates on a Synergy 2 plate reader (Biotek). The polarization was measured at room temperature with an excitation wavelength at 485 nm and an emission wavelength at 535 nm. The FP experiments were performed in an assay buffer of 25 mM Hepes (pH 7.4), 100 mM NaCl, 0.01% Triton X-100, and 100 μg/ml γ-globulin. The final reaction volume was set to 100 μL. For the β-catenin/Tcf assay, 10 nM human β-catenin (residues 138-781) was incubated with 2.5 nM C-terminally fluorescein-labeled human Tcf4 (residues 7-51) for 30 min at 4° C., and then different concentrations of the compound in assay buffer were added. […] For the β-catenin/cadherin assay, 150 nM human β-catenin (residues 138-781) was incubated with 5 nM C-terminally fluorescent-labeled human E-cadherin (residues 819-873) in assay buffer for 30 min at 4° C. The negative control refers to 5 nM E-cadherin fluorescence tracer and 150 nM β-catenin in assay buffer with no inhibitor presenting. The positive control refers to 5 nM E-cadherin fluorescence tracer in assay buffer. […] The negative control refers to 5 nM APC-R3 fluorescence tracer and 2,000 nM β-catenin in assay buffer without the tested compound. The positive control refers to 5 nM APC-R3 fluorescence tracer in assay buffer. Each assay plate was covered black and gently mixed on an orbital shaker at 4° C. for 2.5 h to reach equilibrium before the polarization values were read. […] The IC50 values were determined by GraphPad Prism 5.0. […] The results were expressed as mean±standard deviation. The Tcf/cahderin selectivity ratio was calculated on the basis of the respective Ki value of the β-catenin/E-cadherin interaction over that of the β-catenin/Tcf4 interaction. The Tcf/APC selectivity ratio was calculated on the basis of the respective Ki value of the β-catenin/APC-R3 interaction over that of the β-catenin/Tcf4 interaction. […]

SMILES: O=C(O)c1ccc2c(c1)c(CCc1ccc(Cl)cc1)c(CCc1nc3ccccc3s1)n2CCc1nn[nH]n1 [Compound 27, 1-(2-(2H-tetrazol-5-yl)ethyl)-2-(2-(benzo[d]thiazol-2-yl)ethyl)-3-(4-chlorophenethyl)-1H-indole-5-carboxylic acid]
- Ki (FP selectivity assay, mean ± SD (n = 3)): 26 ± 8 µM
- selectivity for β-catenin/Tcf over β-catenin/cadherin PPI (FP selectivity assays): 28 fold
- Selectivity Tcf/E-cadherin (ratio of Ki β-catenin/E-cadherin over Ki β-catenin/Tcf4): 28
